Measurements published in patent US9682025B2, “Combination of active agents for oral administration for improving the quality of nails” (NUTRICOS TECHNOLOGIES, priority 2013, dated 2017).

Tested on: metalloprotease 9 (MMP-9)
Assay: Basal synthesis/release of MMP-9 by normal human epidermal keratinocytes (ELISA of culture supernatants)
Format: cell-based
Conditions: NHEK; for % of basal synthesis/release of MMP-9 by keratinocytes: 24 hours incubation; for effect on the basal level of synthesis and/or release of MMP-9 (in words): doses of Table I
Protocol: This test was performed on cells cultured at 37° C., 5% CO2. The culture medium is Keratinocyte-SFM supplemented with epidermal growth factor (EGF) at 0.25 ng/ml, pituitary extract (PE) at 25 μg/ml and gentamicin at 25 μg/ml. […] At the end of this incubation, the culture supernatants were collected and stored so as to assay the amounts of MMP-9 secreted using the ELISA R&D Systems assay kit of reference DY911. The inter-group comparisons were performed using the unpaired bilateral Student's t-test.

SMILES	% of basal synthesis/release of MMP-9 by keratinocytes (taurine 1.2 μg/ml)	effect on the basal level of synthesis and/or release of MMP-9 (in words)	% of basal synthesis/release of MMP-9 by keratinocytes (petroselinic acid 0.1 μM) [%]	% of basal synthesis/release of MMP-9 by keratinocytes (cysteine 1.2 μg/ml) [%]
NCCS(=O)(=O)O [Taurine]	+11%	reverse and moderate tendency		
CCCCCCCCCCC/C=C\CCCCC(=O)O [Petroselinic acid, C18 delta-6-cis-octadecenoic acid]		no inhibitory activity	−12	
N[C@@H](CS)C(=O)O [Cysteine]				−12
